This assay has as its system HCV 1b genotype (HCV-neo replicon cells). The experiment in a line: HCV Replicon assay (HCV 1b genotype). The format is cell-based. The note with it: Hepatitis C virus, HCV 1b genotype replicon. As for the experimental part: An HCV Replicon assay was utilized in the present disclosure, and was prepared, conducted and validated as described in commonly owned PCT/US2006/022197 and in O'Boyle et al., Antimicrob. Agents Chemother., 49(4):1346-1353 (April 2005). Assay methods incorporating luciferase reporters have also been used as described (Apath.com).
HCV-neo replicon cells and replicon cells containing resistance substitutions in the NS5A region were used to test the currently described family of compounds. The compounds were determined to have differing degrees of reduced inhibitory activity on cells containing mutations vs. the corresponding inhibitory potency against wild-type cells. Thus, the compounds of the present disclosure can be effective in inhibiting the function of the HCV NS5A protein and are understood to be as effective in combinations as previously described in application PCT/US2006/022197 and commonly owned WO 04/014852. It should be understood that the compounds of the present disclosure can inhibit multiple genotypes of HCV. […] In one embodiment, compounds of the present disclosure are inhibitory versus 1a, 1b, 2a, 2b, 3a, 4a, and 5a genotypes.
On the technique in general: A replicon is a self-replicating genome or part of one, used to study replication in cells.

The mark [1] stands for this setting: class symbol, read-out: Range (EC50 against HCV 1b).

SMILES strings stand for the structures. Like-named read-outs stand apart in the source and are kept apart here.

By EC50 is commonly meant the concentration that produces a half-maximal response. Regarding `COC(=O)N[C@H](C(=O)N1CCC[C@H]1c1nc2ccc(-c3ccc4cc(-c5ccc6nc([C@@H]7CCCN7C(=O)[C@@H](NC(=O)OC)C7CC7)[nH]c6c5)ccc4c3)cc2[nH]1)C1CC1` [Example 11, Dimethyl (2,6-naphthalenediylbis(1H-benzimidazole-5,2-diyl(2S)-2,1-pyrrolidinediyl((1S)-1-cyclopropyl-2-oxo-2,1-ethanediyl)))biscarbamate], the half-maximal effective concentration (EC50) is 0.0101 to 1 nM under setting [1] and 0.0182 nM (read-out: EC50).

With `COC(=O)N[C@H](C(=O)N1[C@@H]2C[C@@H]2C[C@H]1c1ncc(-c2ccc3nc(-c4ccc5nc([C@@H]6C[C@H]7C[C@H]7N6C(=O)[C@@H](NC(=O)OC)C(C)C)[nH]c5c4)cnc3c2)[nH]1)C(C)C` [Example 52, Methyl ((1S)-1-(((1R,3S,5R)-3-(4-(2-(2-((1R,3S,5R)-2-((2S)-2-((methoxycarbonyl)amino)-3-methylbutanoyl)-2-azabicyclo[3.1.0]hex-3-yl)-1H-benzimidazol-5-yl)-6-quinoxalinyl)-1H-imidazol-2-yl)-2-azabicyclo[3.1.0]hex-2-yl)carbonyl)-2-methylpropyl)carbamate], the EC50 (read-out: EC50) was 0.0059 nM.

Turning to `COC(=O)N[C@H](C(=O)N1[C@@H]2C[C@@H]2C[C@H]1c1ncc(-c2ccc3nc(-c4ccc5nc([C@@H]6C[C@H]7C[C@H]7N6C(=O)[C@@H](NC(=O)OC)C6CCOCC6)[nH]c5c4)cnc3c2)[nH]1)C1CCOCC1` [Example 53, Methyl ((1S)-2-((1R,3S,5R)-3-(4-(2-(2-((1R,3S,5R)-2-((2S)-2-((methoxycarbonyl)amino)-2-(tetrahydro-2H-pyran-4-yl)acetyl)-2-azabicyclo[3.1.0]hex-3-yl)-1H-benzimidazol-5-yl)-6-quinoxalinyl)-1H-imidazol-2-yl)-2-azabicyclo[3.1.0]hex-2-yl)-2-oxo-1-(tetrahydro-2H-pyran-4-yl)ethyl)carbamate], the EC50 by setting is: under setting [1], 1.01 to 1000 nM; (read-out: EC50) 1.81 nM. The matching figures for `COC(=O)N[C@H](C(=O)N1[C@@H]2C[C@@H]2C[C@H]1c1ncc(-c2cnc3cc(-c4ccc5nc([C@@H]6C[C@H]7C[C@H]7N6C(=O)[C@@H](NC(=O)OC)C6CCOCC6)[nH]c5c4)ccc3n2)[nH]1)C1CCOCC1` [Example 58, Methyl ((1S)-2-((1R,3S,5R)-3-(4-(6-(2-((1R,3S,5R)-2-((2S)-2-((methoxycarbonyl)amino)-2-(tetrahydro-2H-pyran-4-yl)acetyl)-2-azabicyclo[3.1.0]hex-3-yl)-1H-benzimidazol-5-yl)-2-quinoxalinyl)-1H-imidazol-2-yl)-2-azabicyclo[3.1.0]hex-2-yl)-2-oxo-1-(tetrahydro-2H-pyran-4-yl)ethyl)carbamate]: 0.0101 to 1 nM and 0.849 nM.

As to `COC(=O)N[C@H](C(=O)N1C[C@@H](C)C[C@H]1c1ncc(-c2ccc(-c3ccc4cc(-c5[nH]c([C@@H]6C[C@H](C)CN6C(=O)[C@@H](NC(=O)OC)C(C)C)nc5Cl)ccc4c3)cc2)[nH]1)C(C)C` [Example 143, Methyl ((1S)-1-(((2S,4S)-2-(4-(4-(6-(4-chloro-2-((2S,4S)-1-((2S)-2-((methoxycarbonyl)amino)-3-methylbutanoyl)-4-methyl-2-pyrrolidinyl)-1H-imidazol-5-yl)-2-naphthyl)phenyl)-1H-imidazol-2-yl)-4-methyl-1-pyrrolidinyl)carbonyl)-2-methylpropyl)carbamate], the EC50 (read-out: EC50) came out at 0.00105 nM.

As for `COC(=O)N[C@H](C(=O)N1C[C@@H](C)C[C@H]1c1ncc(-c2ccc(-c3ccc4cc(-c5[nH]c([C@@H]6C[C@H](C)CN6C(=O)[C@@H](NC(=O)OC)C6CCOCC6)nc5Cl)ccc4c3)cc2)[nH]1)C1CCOCC1` [Example 144, Methyl ((1S)-2-((2S,4S)-2-(4-(4-(6-(4-chloro-2-((2S,4S)-1-((2S)-2-((methoxycarbonyl)amino)-2-(tetrahydro-2H-pyran-4-yl)acetyl)-4-methyl-2-pyrrolidinyl)-1H-imidazol-5-yl)-2-naphthyl)phenyl)-1H-imidazol-2-yl)-4-methyl-1-pyrrolidinyl)-2-oxo-1-(tetrahydro-2H-pyran-4-yl)ethyl)carbamate], the EC50 by setting is: under setting [1], 0.0101 to 1 nM; (read-out: EC50) 0.0177 nM.

`COC(=O)N[C@@H](C(=O)N[C@H](c1nc(-c2ccc3cc(-c4ccc(-c5cnc([C@@H](NC(=O)[C@H](NC(=O)OC)C(C)C)C(C)(C)C)[nH]5)cc4)ccc3c2)c[nH]1)C(C)(C)C)C(C)C` [Example 148, Methyl ((1R)-1-(((1S)-1-(4-(4-(6-(2-((1S)-1-(((2R)-2-((methoxycarbonyl)amino)-3-methylbutanoyl)amino)-2,2-dimethylpropyl)-1H-imidazol-4-yl)-2-naphthyl)phenyl)-1H-imidazol-2-yl)-2,2-dimethylpropyl)carbamoyl)-2-methylpropyl)carbamate]: the EC50 is 1.01 to 1000 nM under setting [1] and 8.43 nM (read-out: EC50). Turning to `COC(=O)N[C@H](C(=O)N[C@H](c1nc(-c2ccc(-c3ccc4cc(-c5c[nH]c([C@@H](NC(=O)[C@@H](NC(=O)OC)C(C)C)C(C)(C)C)n5)ccc4c3)cc2)c[nH]1)C(C)(C)C)C(C)C` [Example 149, methyl ((1S)-1-(((1S)-1-(4-(4-(6-(2-((1S)-1-(((2S)-2-((methoxycarbonyl)amino)-3-methylbutanoyl)amino)-2,2-dimethylpropyl)-1H-imidazol-4-yl)-2-naphthyl)phenyl)-1H-imidazol-2-yl)-2,2-dimethylpropyl)carbamoyl)-2-methylpropyl)carbamate], the EC50 under setting [1] lay within 0.0101 to 1 nM. On to `CC(C)CC(=O)N[C@H](c1nc(-c2ccc(-c3ccc4cc(-c5c[nH]c([C@@H](NC(=O)CC(C)C)C(C)(C)C)n5)ccc4c3)cc2)c[nH]1)C(C)(C)C` [Example 150, N-((1S)-1-(4-(4-(6-(2-((1S)-2,2-dimethyl-1-((3-methylbutanoyl)amino)propyl)-1H-imidazol-4-yl)-2-naphthyl)phenyl)-1H-imidazol-2-yl)-2,2-dimethylpropyl)-3-methylbutanamide], for which the EC50 under setting [1] lay in the range of 1.01 to 1000 nM.
